Source: PubChem BioAssay AID330 (DTP/NCI, 2004)
Several values for one entry are separate records, joined by “and”; a condition that tells them apart may be missing. Identical values can stand only once. Toxic doses and inconclusive results are not listed.

System: P388 leukemia ip, CD2F1 mice, survival T/C
Assay: NCI In Vivo Anticancer Drug Screen. Data for tumor model P388 Leukemia (intraperitoneal) in CD2F1 (CDF1) mice
Details: endpoint: median survival time, higher = longer survival
How it was run: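 Mice carrying the transplanted tumor received test compound or vehicle. Survival was recorded in each group, and the value is the treated-group measurement divided by that of the vehicle-treated control group.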

[1] = dose: 50.0 mg/kg/injection, schedule: Q01DX009 (ip), vehicle: saline with Tween-80
[2] = dose: 60.0 mg/kg/injection, schedule: Q01DX005 (ip), vehicle: saline with Tween-80
[3] = dose: 50.0 mg/kg/injection, schedule: Q01DX005 (ip), vehicle: saline with Tween-80

CCCOc1ccc(-c2nc(-c3ccc(N=Cc4ccc(N(CCOS(C)(=O)=O)CCOS(C)(=O)=O)cc4C)cc3)cs2)cc1
T/C (dose: 3.12 mg/kg/injection, schedule: Q01DX009 (ip), vehicle: saline with Tween-80): 160 % of control
T/C (dose: 6.25 mg/kg/injection, schedule: Q01DX009 (ip), vehicle: saline with Tween-80): 180 % of control
T/C (dose: 12.5 mg/kg/injection, schedule: Q01DX009 (ip), vehicle: saline with Tween-80): 156 % of control and 166 % of control and 197 % of control
T/C (dose: 25.0 mg/kg/injection, schedule: Q01DX009 (ip), vehicle: saline with Tween-80): 164 % of control
T/C [1]: 110 % of control and 118 % of control

O=C1OC(/C=C/c2ccccc2)=NC/1=C\c1ccccc1
T/C (dose: 60.0 mg/kg/injection, schedule: Q01DX005 (ip), vehicle: Klucel + Tween-80): 103 % of control
T/C (dose: 120.0 mg/kg/injection, schedule: Q01DX005 (ip), vehicle: Klucel + Tween-80): 99 % of control
T/C (dose: 240.0 mg/kg/injection, schedule: Q01DX005 (ip), vehicle: Klucel + Tween-80): 97 % of control

C=C=C(C)C(c1ccccc1)N(C)C (stereo not given)
T/C (dose: 50.0 mg/kg/injection, schedule: Q01DX005 (ip), vehicle: saline): 108 % of control
T/C (dose: 100.0 mg/kg/injection, schedule: Q01DX005 (ip), vehicle: saline): 109 % of control

O=C1c2ccccc2OCC1/C=N/O (stereo not given)
T/C [2]: 95 % of control
T/C (dose: 120.0 mg/kg/injection, schedule: Q01DX005 (ip), vehicle: saline with Tween-80): 103 % of control
T/C (dose: 240.0 mg/kg/injection, schedule: Q01DX005 (ip), vehicle: saline with Tween-80): 101 % of control

O=C1COCC(=O)OCCOCCOCCOCCO1
T/C (dose: 100.0 mg/kg/injection, schedule: Q04DX003 (ip), vehicle: Klucel (hydroxypropylcellulose) (HPC)): 99 % of control
T/C (dose: 200.0 mg/kg/injection, schedule: Q04DX003 (ip), vehicle: Klucel (hydroxypropylcellulose) (HPC)): 102 % of control
T/C (dose: 400.0 mg/kg/injection, schedule: Q04DX003 (ip), vehicle: Klucel (hydroxypropylcellulose) (HPC)): 99 % of control

CCCCN(CCCC)CCCNc1c2c(nc3ccc(Cl)cc13)CCCC2
T/C (dose: 12.5 mg/kg/injection, schedule: Q01DX005 (ip), vehicle: saline with Tween-80): 102 % of control
T/C (dose: 25.0 mg/kg/injection, schedule: Q01DX005 (ip), vehicle: saline with Tween-80): 104 % of control
T/C [3]: 99 % of control and 101 % of control

CCCCOC(=O)CC(C(=O)OCCCC)C(C(=O)OCCCC)P(=O)(OCCCC)OCCCC (stereo not given)
T/C [3]: 99 % of control
T/C (dose: 100.0 mg/kg/injection, schedule: Q01DX005 (ip), vehicle: saline with Tween-80): 100 % of control
T/C (dose: 200.0 mg/kg/injection, schedule: Q01DX005 (ip), vehicle: saline with Tween-80): 98 % of control

COc1cc2c(cc1C1CCCCCc3c1n(C)c1ccccc31)C1CCCCC1N2C (stereo not given)
T/C (dose: 12.5 mg/kg/injection, schedule: Q01DX001 (ip), vehicle: distilled water + Tween-80): 108 % of control
T/C (dose: 25.0 mg/kg/injection, schedule: Q01DX001 (ip), vehicle: distilled water + Tween-80): 116 % of control
T/C (dose: 50.0 mg/kg/injection, schedule: Q01DX001 (ip), vehicle: distilled water + Tween-80): 101 % of control
T/C (dose: 100.0 mg/kg/injection, schedule: Q01DX001 (ip), vehicle: distilled water + Tween-80): 111 % of control
T/C (dose: 200.0 mg/kg/injection, schedule: Q01DX001 (ip), vehicle: distilled water + Tween-80): 111 % of control

Cc1cc(O)c(C(C)C)cc1S(=O)(=O)O (tested in a mixture with another compound)
T/C (dose: 100.0 mg/kg/injection, schedule: Q04DX003 (ip), vehicle: saline with Tween-80): 100 % of control
T/C (dose: 200.0 mg/kg/injection, schedule: Q04DX003 (ip), vehicle: saline with Tween-80): 95 % of control and 108 % of control
T/C (dose: 400.0 mg/kg/injection, schedule: Q04DX003 (ip), vehicle: saline with Tween-80): 108 % of control

CN(/C=C1\CCCCC1=O)c1ccccc1
T/C [1]: 98 % of control
T/C (dose: 100.0 mg/kg/injection, schedule: Q01DX009 (ip), vehicle: saline with Tween-80): 102 % of control
T/C (dose: 200.0 mg/kg/injection, schedule: Q01DX009 (ip), vehicle: saline with Tween-80): 113 % of control

CCN(CC)Cc1cc(Nc2c3ccccc3nc3cc(Cl)ccc23)ccc1O
T/C (dose: 33.0 mg/kg/injection, schedule: Q01DX009 (ip), vehicle: saline): 100 % of control
T/C (dose: 50.0 mg/kg/injection, schedule: Q01DX009 (ip), vehicle: saline): 109 % of control
T/C (dose: 75.0 mg/kg/injection, schedule: Q01DX009 (ip), vehicle: saline): 122 % of control

NCCCCCC(CCN)SCC1OC(n2cnc3c(N)ncnc32)C(O)C1O (stereo not given)
T/C (dose: 15.0 mg/kg/injection, schedule: Q01DX005 (ip), vehicle: saline with Tween-80): 109 % of control
T/C (dose: 30.0 mg/kg/injection, schedule: Q01DX005 (ip), vehicle: saline with Tween-80): 103 % of control
T/C [2]: 96 % of control

COc1ccc(NS(=O)(=O)c2ccc(N=Cc3c4ccccc4nc4ccccc34)cc2)nn1
T/C (dose: 12.5 mg/kg/injection, schedule: Q04DX002 (ip), vehicle: Klucel (hydroxypropylcellulose) (HPC)): 96 % of control
T/C (dose: 25.0 mg/kg/injection, schedule: Q04DX002 (ip), vehicle: Klucel (hydroxypropylcellulose) (HPC)): 96 % of control
T/C (dose: 50.0 mg/kg/injection, schedule: Q04DX002 (ip), vehicle: Klucel (hydroxypropylcellulose) (HPC)): 89 % of control
T/C (dose: 100.0 mg/kg/injection, schedule: Q04DX002 (ip), vehicle: Klucel (hydroxypropylcellulose) (HPC)): 96 % of control
T/C (dose: 200.0 mg/kg/injection, schedule: Q04DX002 (ip), vehicle: Klucel (hydroxypropylcellulose) (HPC)): 89 % of control
T/C (dose: 400.0 mg/kg/injection, schedule: Q04DX002 (ip), vehicle: Klucel (hydroxypropylcellulose) (HPC)): 89 % of control
